Reference: PMC7330904 (ACS Omega, 2020)

Columns and labels:
[1] = test system: calf thymus DNA (CT-DNA); settings: cited from earlier work
[2] = test system: Hep-G2 cells; experiment: APOPercentage apoptosis assay, Hep-G2; format: cell-based, human; settings: Hep-G2, 24 h, IC50 of complexes, flow cytometry, vs untreated cells

| SMILES | binding constant Kb of known DNA intercalator [1] | induction of apoptosis (APOPercentage dye uptake) [2] |
| --- | --- | --- |
| CC[n+]1c(-c2ccccc2)c2cc(N)ccc2c2ccc(N)cc21 [ethidium bromide] | 1.4 × 10^6 M^–1 | – |
| N.N.[Cl][Pt][Cl] [Cisplatin] | – | but not Hep-G2 cells |
| COc1cccc2c1C(=O)c1c(O)c3c(c(O)c1C2=O)C[C@@](O)(C(=O)CO)C[C@@H]3O[C@H]1C[C@H](N)[C@@H](O)[C@H](C)O1 [Epirubicin] | 3.4 × 10^4 M^–1 | – |
| Nc1ccc2cc3ccc(N)cc3nc2c1 [Proflavine] | 2.32 × 10^4 M^–1 | – |
